In patent US12122736B2, “Salty taste-enhancing agent and manufacturing method therefor, and salty taste-enhancing method” (NISSIN FOODS HOLDINGS CO., LTD., priority 2012, dated 2024):

Tests used:
[1] = Sensory evaluation of salty taste-enhancing action in salt aqueous solution (Example 1); conditions: 0.150 wt % evaluation sample and 0.700 wt % sodium chloride in distilled water; compared with 0.700-0.840 wt % saline
Procedure: The salty taste-enhancing action may be evaluated by a sensory test.
Each evaluation sample and sodium chloride (salt) were dissolved in distilled water to prepare an aqueous solution containing 0.150 wt % of the evaluation sample and 0.700 wt % of sodium chloride, which was used as an evaluation solution. In addition, solutions containing 0.700 wt %, 0.735 wt %, 0.770 wt %, 0.805 wt %, and 0.840% of sodium chloride were used as comparative objects.

[2] = Sensory evaluation of relationship between addition concentration and salty taste-enhancing action (Example 2); conditions: for Salty taste-enhancing effect: 0.700 wt % sodium chloride
Procedure: 3-Guanidino-1-propanol hydrochloride obtained in Synthesis Example 2 was evaluated for its relationship between an addition concentration and a salty taste-enhancing action.
3-Guanidino-1-propanol hydrochloride and sodium chloride (salt) were dissolved in distilled water to prepare an aqueous solution containing 1.5 ppm (0.00015 wt %), 15 ppm (0.0015 wt %), 150 ppm (0.015 wt %), or 1,500 ppm (0.15 wt %) of 3-guanidino-1-propanol hydrochloride and 0.700 wt % of sodium chloride, which was used as an evaluation solution. In addition, solutions containing 0.700 wt %, 0.735 wt %, 0.770 wt %, 0.805 wt %, and 0.840 wt % of sodium chloride were used as comparative objects.

N=C(N)NCCC(=O)O [β-Guanidinopropanoic acid]
Salty taste-enhancing effect [1]: ++ (exhibiting a salty taste equal to or stronger than that of 0.770 wt % saline (exhibiting a salty taste-enhancing effect of 10% or more))

N=C(N)NCCCO [Example 14]
Salty taste-enhancing effect [1]: ++++ (exhibiting a salty taste equal to or stronger than that of 0.840 wt % saline (exhibiting a salty taste-enhancing effect of 20% or more))

N=C(N)NCCCCCC(=O)O [6-Guanidinocaproic acid]
Salty taste-enhancing effect [1]: + (exhibiting a salty taste equal to or stronger than that of 0.735 wt % saline (exhibiting a salty taste-enhancing effect of 5% or more))

Cl.N=C(N)NCCCO [Synthesis Example 2, 3-Guanidino-1-propanol hydrochloride]
addition concentration at which a salty taste-enhancing action was exhibited ([2]; 0.700 wt % sodium chloride aqueous solution): ≥ 15 ppm
Salty taste-enhancing effect ([2]; addition concentration 1.5 ppm (0.00015%)): ± (exhibiting a salty taste weaker than that of 0.735 wt % saline (exhibiting a salty taste-enhancing effect of less than 5%))
Salty taste-enhancing effect ([2]; addition concentration 15 ppm (0.0015%)): + (exhibiting a salty taste equal to or stronger than that of 0.735 wt % saline (exhibiting a salty taste-enhancing effect of 5% or more))
Salty taste-enhancing effect ([2]; addition concentration 150 ppm (0.015%)): ++ (exhibiting a salty taste equal to or stronger than that of 0.770 wt % saline (exhibiting a salty taste-enhancing effect of 10% or more))
Salty taste-enhancing effect ([2]; addition concentration 1,500 ppm (0.15%)): ++++ (exhibiting a salty taste equal to or stronger than that of 0.840 wt % saline (exhibiting a salty taste-enhancing effect of 20% or more))

Cl.N=C(N)N [Guanidine hydrochloride]
Salty taste-enhancing effect [1]: +++ (exhibiting a salty taste equal to or stronger than that of 0.805 wt % saline (exhibiting a salty taste-enhancing effect of 15% or more))
